Read-outs that look alike come from different tables or passages of the source.
Key:
[1] = test system: systolic blood pressure, spontaneously hypertensive rats; experiment: Antihypertensive activity test; type: in vivo, rat (male spontaneously hypertensive); conditions: oral
Excerpt: Variations in systolic blood pressure were periodically measured by a programmed electrosphygmomanometer-type blood pressure measuring device (NARCO, PE-300).

[2] = test system: KCl-induced contraction of helical blood vessel specimen (artery); experiment: Test on calcium antagonizing activity (KCl-induced contraction of helical blood vessel specimen); design: species or system rabbit; conditions: contraction height at 40 mM KCl taken as 100%, 10 minutes after test compound, 37° C., read-out: ED50 (concentration which inhibits the contraction height of the control to an extent of 50%)
Procedure: Female and male rabbits weighing 2 to 3 kg were used. They were anesthetized by intravenous injection of pentobarbital sodium, and sacrificed by bleeding from the femoral arteries. Immediately then, the artery was extracted from the chest, and a helical blood vessel specimen was prepared.

| Structure (SMILES) | IC50 ([2]; Oryctolagus cuniculus, 10 min) [nM] | IC50 ([2]; 10 min) [nM] | IC50 [2] [nM] | Systolic blood pressure (maximum variation) ([1]; 1 mg/kg) [mmHg] | Systolic blood pressure (maximum variation) ([1]; 3 mg/kg) [mmHg] | Systolic blood pressure (maximum variation) ([1]; 10 mg/kg) [mmHg] | Systolic blood pressure (maximum variation) ([1]; 30 mg/kg) [mmHg] |
| --- | --- | --- | --- | --- | --- | --- | --- |
| COC(=O)C1=C(C)NC(C)=C(C(=O)OC)C1c1ccccc1[N+](=O)[O-] [Nifedipine, reference compound] | 19.6 | – | – | -29 | -42 | -71 | – |
| CCOC(=O)C1=C(C)Nc2snc(CN(C)CCCOc3cccc(OC)c3)c2C1c1cccc([N+](=O)[O-])c1 (centres unmarked) [Ib, ethyl 3-[N-(3-(3-methoxyphenoxy)propyl)-N-methylaminomethyl]-6-methyl-4-(3-nitrophenyl)-4,7-dihydroisothiazolo[5,4-b]pyridine-5-carboxylate] | 62 | – | – | – | -30 | -76 | -108 |
| CCOC(=O)C1=C(C)Nc2snc(CN(C)CCc3ccc(OC)c(OC)c3)c2C1c1cccc([N+](=O)[O-])c1 (centres unmarked) [Ia, ethyl 3-[N-(2-(3,4-dimethoxyphenyl)ethyl)-N-methylaminomethyl]-6-methyl-4-(3-nitrophenyl)-4,7-dihydroisothiazolo[5,4-b]pyridine-5-carboxylate] | 60 | – | – | -6 | -26 | -82 | -119 |
| CCOC(=O)C1=C(C)Nc2snc(CCN3CCN(c4ccccc4)CC3)c2C1c1cccc([N+](=O)[O-])c1 (single isomer, unassigned; (-)) [Ih, (-)-ethyl 3-[2-(4-phenyl-1-piperazinyl)ethyl]-6-methyl-4-(3-nitrophenyl)-4,7-dihydroisothiazolo[5,4-b]pyridine-5-carboxylate] | – | 25 | – | -36 | -93 | -137 | – |
| CCOC(=O)C1=C(C)Nc2snc(CCN3CCN(c4ccc(F)cc4)CC3)c2C1c1cccc([N+](=O)[O-])c1 (centres unmarked) [If, ethyl 3-[2-(4-(4-fluorophenyl)-1-piperazinyl)ethyl]-6-methyl-4-(3-nitrophenyl)-4,7-dihyhdroisothiazolo[5,4-b]pyridine-5-carboxylate] | – | – | 63.8 | -47 | -54 | -102 | – |
| CCOC(=O)C1=C(C)Nc2snc(CCN3CCN(c4ccccc4)CC3)c2C1c1cccc([N+](=O)[O-])c1 (single isomer, unassigned; (+)) [Ig, (+)-ethyl 3-[2-(4-phenyl-1-piperazinyl)ethyl]-6-methyl-4-(3-nitrophenyl)-4,7-dihydroisothiazolo[5,4-b]pyridine-5-carboxylate] | – | > 300 | – | – | – | – | – |

Now from value to molecule, other results behind:

| IC50 ([2]; Oryctolagus cuniculus, 10 min) [nM] | IC50 ([2]; 10 min) [nM] | IC50 [2] [nM] | Structure (SMILES) | Systolic blood pressure (maximum variation) ([1]; 1 mg/kg) [mmHg] | Systolic blood pressure (maximum variation) ([1]; 3 mg/kg) [mmHg] | Systolic blood pressure (maximum variation) ([1]; 10 mg/kg) [mmHg] | Systolic blood pressure (maximum variation) ([1]; 30 mg/kg) [mmHg] |
| --- | --- | --- | --- | --- | --- | --- | --- |
| 225 | – | – | COc1ccc(CCN(C)Cc2nsc3c2C(c2cccc([N+](=O)[O-])c2)C(C(=O)OCCN(C)Cc2ccccc2)=C(C)N3)cc1OC (centres unmarked) [Ic, 2-(N-benzyl-N-methylamino)ethyl 3-[N-(2-(3,4-dimethoxyphenyl)ethyl)-N-methylaminomethyl]-6-methyl-4-(3-nitrophenyl)-4,7-dihydroisothiazolo[5,4-b]pyridine-5-carboxylate] | – | -37 | -92 | -135 |
| 33 | – | – | CCOC(=O)C1=C(C)Nc2snc(CCN3CCN(c4ccccc4)CC3)c2C1c1cccc([N+](=O)[O-])c1 (centres unmarked) [Ie, ethyl 3-[2-(4-phenyl-1-piperazinyl)ethyl]-6-methyl-4-(3-nitrophenyl)-4,7-dihydroisodithiazolo[5,4-b]pyridine-5-carboxylate] | -41 | -51 | -101 | – |
| > 300 | – | – | CC1=C(C(=O)OCCN(C)Cc2ccccc2)C(c2cccc([N+](=O)[O-])c2)c2c(CN3CCN(c4ccc(F)cc4)CC3)nsc2N1 (centres unmarked) [Id, 2-(N-benzyl-N-methylamino)ethyl 3-[4-(4-fluorophenyl)-1-piperazinylmethyl]-6-methyl-4-(3-nitrophenyl)-4,7-dihydroisothiazolo[5,4-b]pyridine-5-carboxylate] | -30 | -65 | -132 | -142 |
